For data set [1] the following is noted: rabbit, in vivo.
For data set [2] the following is noted: rabbit, in vivo. The source holds these as a separate data set.
Procedure: The selected BDI-1 implants (from in-vitro release studies, FIG. 7) were sterilized, implanted in the capsular bag of rabbit's eyes. Two implants with different composition and dose were tested in-vivo in NZW rabbits to establish pharmacokinetics. Two rabbits were sacrificed at 2, 6, 10, 15 days and various tissue samples (aqueous humor, vitreous humor, IOL, iris/ciliary body and retina/choroid) were collected and samples were analyzed by a validated LC/MS/MS method.
A total of 8 animals (16 eyes) received the implant containing 120 μg of DXM.
A short description of data set [3]: AVASTIN-loaded intraocular device, ocular tissue concentration by ELISA. Particulars: 1 week post implantation of AVASTIN-loaded intraocular device. Format: in vivo, New Zealand white rabbits. The text has this: Three intraocular devices were implanted into eyes of New Zealand white rabbits under general anesthesia after lens extraction (phacoemulsification technique). Two of the devices were loaded with AVASTIN® and one was loaded with the contrast agent Galbumin as a control. Proper intraocular device position was verified by MRI as well as clinical examination.
The rabbits were sacrificed and the eyes are removed and assayed after 1 week post implantation. AVASTIN® was detected by ELISA in the retina and vitreous at concentrations of 24-48 mcg/mL, and was not present in the control rabbit eye.

Where two headings read alike, the source gives them in different places.

`C[C@@H]1C[C@H]2[C@@H]3CCC4=CC(=O)C=C[C@]4(C)[C@@]3(F)[C@@H](O)C[C@]2(C)[C@@]1(O)C(=O)CO` [dexamethasone]: the “direction of dexamethasone flow from the endocapsular space” value in data set [1] is “bidirectional from the endocapsular space into both the anterior and posterior chambers”; in data set [2], “bidirectional from the endocapsular space into both the anterior and posterior chambers”.

On to bevacizumab [AVASTIN®], for which the “concentration in the retina and vitreous by ELISA” value in data set [3] was 24000 to 48000 ng/mL.

These data come from US9877973B2, “Intraocular drug delivery device and associated methods” (University of Utah Research Foundation, priority 2008, dated 2018).
